Results as given in patent US8017558B2, “Carboxamides for controlling micro-organisms in plant and material protection” (priority 2005, dated 2011).
Values belong to the molecule of their own block, whether it stands above or below them.

What was measured:
[1] = logP determination by HPLC on reversed-phase column (C 18), EEC Directive 79/831 Annex V.A8; format: physicochemical; settings: for chromatographic logP: reversed-phase HPLC column (C 18)
Method: The logP values given in the Tables and Preparation Examples above are determined in accordance with EEC Directive 79/831 Annex V.A8 by HPLC (High Performance Liquid Chromatography) on a reversed-phase column (C 18). Temperature: 43° C. The determination is carried out in the acidic range at pH 2.3 using the mobile phases 0.1% aqueous phosphoric acid and acetonitrile; linear gradient from 10% acetonitrile to 90% acetonitrile. The determination is carried out in the neutral range at pH 7.5 using the mobile phases 0.01-molar aqueous phosphate buffer solution and acetonitrile; linear gradient from 10% acetonitrile to 90% acetonitrile. Calibration is carried out using unbranched alkan-2-ones (having 3 to 16 carbon atoms), with known logP values (determination of the logP values by the retention times using linear interpolation between two successive alkanones).

[2] = test system: Sphaerotheca fuliginea; experiment: Sphaerotheca Test (cucumber)/protective; format: in vivo; settings: protective spray, application rate 100 ppm, evaluation 7 days after inoculation
Method: Sphaerotheca Test (Cucumber)/Protective
To produce a suitable preparation of active compound, 1 part by weight of active compound is mixed with the stated amounts of solvents and emulsifier, and the concentrate is diluted with water to the desired concentration.
To test for protective activity, young plants are sprayed with the active compound preparation at the stated application rate. After the spray coating has dried on, the plants are inoculated with an aqueous spore suspension of Sphaerotheca fuliginea. The plants are then placed in a greenhouse at about 23° C. and a relative atmospheric humidity of about 70%.
Evaluation is carried out 7 days after the inoculation. 0% means an efficacy which corresponds to that of the control, whereas an efficacy of 100% means that no infection is observed.

[3] = test system: Venturia inaequalis; experiment: Venturia Test (apple)/protective; format: in vivo; settings: protective spray, application rate 100 ppm, evaluation 10 days after inoculation
Method: Venturia Test (Apple)/Protective
(§1) To produce a suitable preparation of active compound, 1 part by weight of active compound is mixed with the stated amounts of solvents and emulsifier and the concentrate is diluted with water to the desired concentration. To test for protective activity, young plants are sprayed with the active compound preparation at the stated application rates. After the spray coating has dried on, the plants are inoculated with an aqueous conidia suspension of the apple scab pathogen Venturia inaequalis and then remain in an incubation cabin at about 20° C. and 100% relative atmospheric humidity for 1 day. The plants are then placed in a greenhouse at about 21° C. and a relative atmospheric humidity of about 90%. Evaluation is carried out 10 days after the inoculation. 0% means an efficacy which corresponds to that of the control, whereas an efficacy of 100% means that no infection is observed.

[4] = test system: Uromyces appendiculatus; experiment: Uromyces Test (bean)/protective; format: in vivo; settings: protective spray, application rate 100 ppm, evaluation 10 days after inoculation
Method: Uromyces Test (Bean)/Protective
as §1, with “rate.” for “rates.”, “spore” for “conidia”, “bean rust” for “apple scab”, “Uromyces appendiculatus” for “Venturia inaequalis”, “cabinet” for “cabin”

[5] = test system: Alternaria solani; experiment: Alternaria Test (tomato)/protective; format: in vivo; settings: protective spray, application rate 500 ppm, evaluation 7 days after inoculation
Method: Alternaria Test (Tomato)/Protective
To produce a suitable preparation of active compound, 1 part by weight of active compound is mixed with the stated amounts of solvent and emulsifier and the concentrate is diluted with water to the desired concentration. To test for protective activity, young tomato plants are sprayed with the active compound preparation at the stated application rate. 1 day after the treatment, the plants are inoculated with a spore suspension of Alternaria solani and then remain at 100% relative atmospheric humidity and 20° C. for 24 h. The plants then remain at 96% relative atmospheric humidity and a temperature of 20° C. Evaluation is carried out 7 days after the inoculation. 0% means an efficacy which corresponds to that of the control, whereas an efficacy of 100% means that no infection is observed.

[6] = test system: Pyrenophora teres; experiment: Pyrenophora teres Test (barley)/protective; format: in vivo; settings: protective spray, application rate 1000 ppm, evaluation 8 days after inoculation
Method: Pyrenophora teres Test (Barley)/Protective
(§2) To produce a suitable preparation of active compound, 1 part by weight of active compound is mixed with the stated amounts of solvent and emulsifier and the concentrate is diluted with water to the desired concentration. To test for protective activity, young plants are sprayed with the active compound preparation at the stated application rate. After the spray coating has dried on, the plants are sprayed with a conidia suspension of Pyrenophora teres. The plants remain in an incubation cabin at 20° C. and 100% relative atmospheric humidity for 48 hours. The plants are then placed in a greenhouse at a temperature of about 20° C. and a relative atmospheric humidity of about 80%. Evaluation is carried out 8 days after the inoculation. 0% means an efficacy which corresponds to that of the control, whereas an efficacy of 100% means that no infection is observed.

[7] = test system: Puccinia recondita; experiment: Puccinia Test (wheat)/protective; format: in vivo; settings: protective spray, application rate 1000 ppm, evaluation 10 days after inoculation
Method: Puccinia Test (Wheat)/Protective
as §2, with “of Puccinia recondita.” for “of Pyrenophora teres.”, “about 80% to promote the development of rust pustules.” for “about 80%.”, “out 10” for “out 8”

[8] = test system: Botrytis cinerea; experiment: Botrytis Test (bean)/protective; format: in vivo; settings: protective spray, application rate 250 ppm, evaluation 2 days after inoculation
Method: Botrytis Test (Bean)/Protective
To produce a suitable preparation of active compound, 1 part by weight of active compound is mixed with the stated amounts of solvents and emulsifier and the concentrate is diluted with water to the desired concentration. To test for protective activity, young plants are sprayed with the active compound preparation at the stated application rate. After the spray coating has dried on, 2 small pieces of agar colonized by Botrytis cinerea are placed onto each leaf. The inoculated plants are placed in a dark chamber at about 20° C. and 100% relative atmospheric humidity. The size of the infected areas on the leaves is evaluated 2 days after the inoculation. 0% means an efficacy which corresponds to that of the control, whereas an efficacy of 100% means that no infection is observed.

[9] = pH 2.3, 0.1% aqueous phosphoric acid/acetonitrile gradient, 43° C.

Compound: Cn1cc(C(=Nc2ccccc2C2CC3CCC2C3)SCSC#N)c(C(F)F)n1 (stereo not drawn) [Compound 7]
logP (pH 2.3) [1, 9]: 4.55

Compound: Cn1cc(C(=Nc2ccccc2C2CC3CCC2C3)SC(=O)C2(C)CCCCC2)c(C(F)F)n1 (stereo not drawn) [Compound 20]
logP (pH 2.3) ([1]; pH 2.3): 6.66 | Efficacy in % [2]: 100% | Efficacy in % [3]: 100% | Efficacy in % [4]: 99% | Efficacy in % [5]: 80% | Efficacy in % [6]: 100% | Efficacy in % [7]: 100%

Compound: CCOC(=O)CSC(=Nc1ccccc1C1CC2CCC1C2)c1cn(C)nc1C(F)F (stereo not drawn) [Compound 11]
logP (pH 2.3) ([1]; pH 2.3): 4.66 | Efficacy in % [2]: 100% | Efficacy in % [3]: 100% | Efficacy in % [8]: 100% | Efficacy in % [4]: 100% | Efficacy in % [5]: 95% | Efficacy in % [6]: 100% | Efficacy in % [7]: 100%

Compound: Cn1cc(C(=Nc2ccccc2C2CC3CCC2C3)SCC#N)c(C(F)F)n1 (stereo not drawn) [Compound 6]
logP (pH 2.3) [1, 9]: 4.15

Compound: COCCSC(=Nc1ccccc1C1CC2CCC1C2)c1cn(C)nc1C(F)F (stereo not drawn) [Compound 3]
logP (pH 2.3) [1, 9]: 4.62

Compound: CS/C(=N\c1ccccc1C1CC2CCC1C2)c1cn(C)nc1C(F)F (stereo not drawn) [Compound 9, methyl N-(2-bicyclo[2.2.1]hept-2-ylphenyl)-3-(difluoromethyl)-1-methyl-1H-pyrazole-4-carbimidothioate]
chromatographic logP [1, 9]: 4.75

Compound: Cn1cc(C(=Nc2ccccc2C2CC3CCC2C3)SCCO)c(C(F)F)n1 (stereo not drawn) [Compound 10]
logP (pH 2.3) ([1]; pH 2.3): 3.23 | Efficacy in % [2]: 100% | Efficacy in % [3]: 100% | Efficacy in % [8]: 100% | Efficacy in % [4]: 100% | Efficacy in % [5]: 100%

Compound: C#CCSC(=Nc1ccccc1C1CC2CCC1C2)c1cn(C)nc1C(F)F (stereo not drawn) [Compound 8]
logP (pH 2.3) [1, 9]: 4.65

Compound: Cn1cc(C(=Nc2ccccc2C2CC3CCC2C3)SC(=O)C(C)(C)C)c(C(F)F)n1 (stereo not drawn) [Compound 18]
logP (pH 2.3) [1, 9]: 5.81

Compound: CCCCCCCCCCCCSC(=Nc1ccccc1C1CC2CCC1C2)c1cn(C)nc1C(F)F (stereo not drawn) [Compound 13]
logP (pH 2.3) [1, 9]: 7.36

Compound: Cn1cc(C(=Nc2ccccc2C2CC3CCC2C3)SCc2ccc(Cl)nc2)c(C(F)F)n1 (stereo not drawn) [Compound 12]
logP (pH 2.3) [1, 9]: 4.95

Compound: CCC1(C(=O)SC(=Nc2ccccc2C2CC3CCC2C3)c2cn(C)nc2C(F)F)C(C)C1(Cl)Cl (stereo not drawn) [Compound 19]
logP (pH 2.3) ([1]; pH 2.3): 6.52 | Efficacy in % [3]: 99% | Efficacy in % [4]: 96% | Efficacy in % [5]: 90% | Efficacy in % [6]: 92% | Efficacy in % [7]: 93%

The remaining lines, values ahead:

logP (at pH 7.5) ([1]; pH 7.5, 0.01-molar aqueous phosphate buffer/acetonitrile gradient, 43° C.): 3.70 (at pH 7.5)
Compound: Cc1nn(C)c(F)c1C(=S)Nc1ccccc1C(C)CC(C)(C)C (stereo not drawn) [II-1]

chromatographic logP [1, 9]: 3.66
Compound: Cn1cc(C(=S)Nc2ccccc2C2CC3CCC2C3)c(C(F)F)n1 (stereo not drawn) [II-7, N-(2-bicyclo[2.2.1]hept-2-ylphenyl)-3-(difluoromethyl)-1-methyl-1H-pyrazole-4-thiocarboxamide]

logP (pH 2.3) [1, 9]: 2.88
Compound: Cn1cc(C(=NO)Nc2ccccc2C2CC3CCC2C3)c(C(F)F)n1 (stereo not drawn) [II-9]

chromatographic logP [1, 9]: 3.66
Compound: Cn1cc(C(=NNc2ccccc2)Nc2ccccc2C2CC3CCC2C3)c(C(F)F)n1 (stereo not drawn) [II-8, N-(2-bicyclo[2.2.1]hept-2-ylphenyl)-3-(difluoromethyl)-1-methyl-N′-phenyl-1H-pyrazole-4-carbohydrazonamide]
